Activity calls are given as the source filed them. The rule behind the calls is not given here.
Experiments:
[1] = Half life in Sprague-Dawley rat blood at 1 uM by LC-MS/MS analysis; type: ADME, tissue-based
[2] = Terminal half life in Beagle dog at 1 mg/kg, iv administered as single dose; type: ADME, organism-based, Canis lupus familiaris; conditions: in vivo, read-out: beta t1/2 (converted)
[3] = Half life in human blood at 1 uM by LC-MS/MS analysis; type: ADME, tissue-based
[4] = Apparent intrinsic clearance in human microsomes; type: ADME, Microsome; conditions: read-out: CL(app)
Hepatocyte = conditions: human, hepatocytes, 1 µM
[5] = Fraction unbound in mouse plasma at 2 uM by LC-MS/MS based equilibrium dialysis method; type: ADME, cell-free
Rattus norvegicus [6] = experiment: Toxicity in rat assessed as effect on pulmonary system functions administered as repeated dosing; type: organism-based; conditions: in vivo
Rattus norvegicus [7] = experiment: Toxicity in rat assessed as electrocardiogram changes administered as repeated dosing; type: organism-based; conditions: in vivo
Rattus norvegicus [8] = experiment: Toxicity in rat assessed as effect on central nervous system functions administered as single dose; type: organism-based; conditions: in vivo
CYP2D6 = CYP2D6 (Homo sapiens, UniProt P10635); experiment: Inhibition of human CYP2D6 at 10 uM; type: ADME
Sequence of CYP2D6 (P10635 whole entry): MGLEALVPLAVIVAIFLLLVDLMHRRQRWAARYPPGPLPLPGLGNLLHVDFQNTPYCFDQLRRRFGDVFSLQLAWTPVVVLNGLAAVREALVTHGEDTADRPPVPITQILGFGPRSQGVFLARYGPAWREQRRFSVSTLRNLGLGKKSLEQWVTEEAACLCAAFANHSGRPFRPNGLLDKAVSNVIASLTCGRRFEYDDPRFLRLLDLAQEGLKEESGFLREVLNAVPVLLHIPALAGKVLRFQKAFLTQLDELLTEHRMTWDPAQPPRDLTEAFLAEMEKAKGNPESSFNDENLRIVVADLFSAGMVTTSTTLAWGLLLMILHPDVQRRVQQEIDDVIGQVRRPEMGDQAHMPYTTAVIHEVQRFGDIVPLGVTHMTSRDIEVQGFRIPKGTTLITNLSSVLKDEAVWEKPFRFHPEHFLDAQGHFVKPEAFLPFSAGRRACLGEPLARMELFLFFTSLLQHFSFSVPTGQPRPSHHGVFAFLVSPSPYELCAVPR

[9] = Apparent intrinsic clearance in human hepatocytes; type: ADME, cell-based, Hepatocyte; conditions: read-out: CLH(app)
CYP2C8 = CYP2C8 (Homo sapiens, UniProt P10632); experiment: Inhibition of human CYP2C8 at 10 uM; type: ADME
Sequence of CYP2C8 (P10632 whole entry): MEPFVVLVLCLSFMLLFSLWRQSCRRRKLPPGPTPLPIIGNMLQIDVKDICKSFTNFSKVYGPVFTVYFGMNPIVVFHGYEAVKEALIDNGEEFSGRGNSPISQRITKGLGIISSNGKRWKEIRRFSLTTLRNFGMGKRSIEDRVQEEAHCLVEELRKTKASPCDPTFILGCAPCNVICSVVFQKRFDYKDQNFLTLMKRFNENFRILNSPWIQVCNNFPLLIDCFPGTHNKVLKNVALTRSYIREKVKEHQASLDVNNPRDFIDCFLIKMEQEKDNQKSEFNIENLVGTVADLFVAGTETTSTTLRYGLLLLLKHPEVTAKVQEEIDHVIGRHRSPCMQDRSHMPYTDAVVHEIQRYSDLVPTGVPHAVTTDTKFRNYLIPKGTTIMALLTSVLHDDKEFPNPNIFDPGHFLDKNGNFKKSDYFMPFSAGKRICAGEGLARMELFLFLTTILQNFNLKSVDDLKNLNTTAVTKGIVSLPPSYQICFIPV

Canis familiaris [10] = experiment: Toxicity in dog assessed as effect on heart rate administered as single dose; type: organism-based, Canis lupus familiaris; conditions: in vivo
[11] = Fraction unbound in human plasma at 2 uM by LC-MS/MS based equilibrium dialysis method; type: ADME, cell-free
Rattus norvegicus [12] = experiment: Toxicity in rat assessed as electrocardiogram changes administered as single dose; type: organism-based; conditions: in vivo
[13] = target: Tyrosine-protein kinase BTK (Homo sapiens) (UniProt Q06187); experiment: Inhibition of BTK (unknown origin) at 1 uM by cell based assay
Sequence of Tyrosine-protein kinase BTK (Homo sapiens) (Q06187 whole entry): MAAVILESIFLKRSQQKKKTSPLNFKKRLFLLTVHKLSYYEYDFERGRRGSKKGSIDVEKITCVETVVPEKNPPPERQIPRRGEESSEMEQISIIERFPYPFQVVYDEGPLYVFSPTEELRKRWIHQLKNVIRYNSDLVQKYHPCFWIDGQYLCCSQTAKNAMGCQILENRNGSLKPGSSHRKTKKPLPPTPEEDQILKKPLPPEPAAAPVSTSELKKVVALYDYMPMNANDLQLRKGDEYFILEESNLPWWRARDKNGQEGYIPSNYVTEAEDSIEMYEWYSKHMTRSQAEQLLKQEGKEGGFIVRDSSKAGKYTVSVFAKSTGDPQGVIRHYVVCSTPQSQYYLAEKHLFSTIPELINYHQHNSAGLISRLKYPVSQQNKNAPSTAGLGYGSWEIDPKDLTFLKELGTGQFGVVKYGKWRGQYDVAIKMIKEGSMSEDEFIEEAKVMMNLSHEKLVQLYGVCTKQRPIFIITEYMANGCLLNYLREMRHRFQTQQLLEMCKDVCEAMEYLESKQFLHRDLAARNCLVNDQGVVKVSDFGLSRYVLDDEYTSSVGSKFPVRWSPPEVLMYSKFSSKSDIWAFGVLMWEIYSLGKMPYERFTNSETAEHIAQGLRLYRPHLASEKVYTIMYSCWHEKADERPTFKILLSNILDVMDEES

[14] = Apparent intrinsic hepatic clearance in dog hepatocytes; type: ADME, cell-based, Canis lupus familiaris, Hepatocyte; conditions: read-out: CLH(app)
Rattus norvegicus [15] = experiment: Toxicity in rat assessed as body weight loss administered as repeated dosing for 91 days; type: organism-based; conditions: in vivo, 2184 h
[16] = Fraction unbound in dog plasma at 2 uM by LC-MS/MS based equilibrium dialysis method; type: ADME, cell-free, Canis lupus familiaris
[17] = target: Receptor tyrosine-protein kinase erbB-4 (Homo sapiens) (UniProt Q15303); experiment: Inhibition of N-terminal GST-tagged recombinant human ErbB4 cytoplasmic domain (708 to 993 residues) expressed in Baculovirus expression system at 1 uM by FRET-based Z'-LYTE assay
[18] = Oral bioavailability in Wistar Han rat at 30 mg/kg administered as single dose; type: ADME, organism-based; conditions: in vivo
[19] = Oral bioavailability in Nu/Nu mouse at 1 mg/kg administered as single dose; type: ADME, organism-based; conditions: in vivo
[20] = target: Voltage-gated inwardly rectifying potassium channel KCNH2 (Homo sapiens, UniProt Q12809); experiment: Inhibition of human ERG
Sequence of Voltage-gated inwardly rectifying potassium channel KCNH2 (Q12809 whole entry): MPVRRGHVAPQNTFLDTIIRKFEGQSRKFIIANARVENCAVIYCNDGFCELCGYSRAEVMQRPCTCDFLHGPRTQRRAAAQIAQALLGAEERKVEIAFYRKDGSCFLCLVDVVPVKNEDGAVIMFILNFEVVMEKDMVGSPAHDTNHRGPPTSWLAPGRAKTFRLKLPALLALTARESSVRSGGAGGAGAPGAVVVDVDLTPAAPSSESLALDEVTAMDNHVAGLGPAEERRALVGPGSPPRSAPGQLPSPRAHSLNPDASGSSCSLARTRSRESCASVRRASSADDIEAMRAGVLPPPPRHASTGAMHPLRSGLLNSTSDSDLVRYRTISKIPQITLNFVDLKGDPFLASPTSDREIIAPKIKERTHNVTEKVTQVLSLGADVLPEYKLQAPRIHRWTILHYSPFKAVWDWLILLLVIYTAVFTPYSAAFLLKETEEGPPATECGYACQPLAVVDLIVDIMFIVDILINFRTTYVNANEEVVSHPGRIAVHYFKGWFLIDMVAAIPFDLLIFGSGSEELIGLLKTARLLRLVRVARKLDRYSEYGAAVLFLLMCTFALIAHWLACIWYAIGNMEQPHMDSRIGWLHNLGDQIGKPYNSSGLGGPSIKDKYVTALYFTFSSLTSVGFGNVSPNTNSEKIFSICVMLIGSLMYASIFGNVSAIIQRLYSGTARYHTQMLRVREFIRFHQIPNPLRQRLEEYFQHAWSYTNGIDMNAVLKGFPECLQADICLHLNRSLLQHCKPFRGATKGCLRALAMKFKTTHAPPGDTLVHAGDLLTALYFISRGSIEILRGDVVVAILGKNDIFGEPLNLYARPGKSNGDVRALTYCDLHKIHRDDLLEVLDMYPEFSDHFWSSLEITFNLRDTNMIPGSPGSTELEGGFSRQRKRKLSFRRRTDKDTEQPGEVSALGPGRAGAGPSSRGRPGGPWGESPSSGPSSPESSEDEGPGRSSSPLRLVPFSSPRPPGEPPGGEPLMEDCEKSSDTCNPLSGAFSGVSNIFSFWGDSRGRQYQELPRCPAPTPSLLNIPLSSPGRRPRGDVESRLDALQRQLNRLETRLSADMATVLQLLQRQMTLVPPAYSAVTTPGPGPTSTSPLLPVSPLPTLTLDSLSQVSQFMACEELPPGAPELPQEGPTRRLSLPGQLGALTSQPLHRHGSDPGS

in vitro [21] = conditions: dog, MDCK
[22] = Time-dependent inhibition of CYP450 (unknown origin); type: ADME; conditions: human
Canis familiaris [23] = experiment: Toxicity in dog assessed as effect on pulmonary system functions administered as repeated dosing; type: organism-based, Canis lupus familiaris; conditions: in vivo
in vitro [24] = conditions: human, liver microsomes
[25] = target: Tyrosine-protein kinase Tec (Homo sapiens) (UniProt P42680); experiment: Inhibition of His-tagged full-length recombinant human TEC cytoplasmic domain expressed in Baculovirus expression system at 1 uM by FRET-based Z'-LYTE assay
Sequence of Tyrosine-protein kinase Tec (Homo sapiens) (P42680 whole entry, the tested form may be a part): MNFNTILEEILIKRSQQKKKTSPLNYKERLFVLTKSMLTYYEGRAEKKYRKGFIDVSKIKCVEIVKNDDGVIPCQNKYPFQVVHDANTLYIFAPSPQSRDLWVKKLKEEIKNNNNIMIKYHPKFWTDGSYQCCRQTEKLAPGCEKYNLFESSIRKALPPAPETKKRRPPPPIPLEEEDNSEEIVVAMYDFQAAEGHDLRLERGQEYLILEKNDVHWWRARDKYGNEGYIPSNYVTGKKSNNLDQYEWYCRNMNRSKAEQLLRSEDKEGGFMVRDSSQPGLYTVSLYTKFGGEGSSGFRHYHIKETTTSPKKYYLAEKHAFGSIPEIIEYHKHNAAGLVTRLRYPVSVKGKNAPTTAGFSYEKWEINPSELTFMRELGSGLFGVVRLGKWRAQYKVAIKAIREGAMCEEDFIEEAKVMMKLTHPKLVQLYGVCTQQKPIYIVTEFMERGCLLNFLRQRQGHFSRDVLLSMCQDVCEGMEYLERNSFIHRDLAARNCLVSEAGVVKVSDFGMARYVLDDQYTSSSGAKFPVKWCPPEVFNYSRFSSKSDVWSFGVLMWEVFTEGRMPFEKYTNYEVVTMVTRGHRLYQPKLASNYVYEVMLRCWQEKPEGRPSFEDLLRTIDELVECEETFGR

Rattus norvegicus [26] = experiment: Toxicity in rat assessed as effect on central nervous system functions administered as repeated dosing; type: organism-based; conditions: in vivo
[27] = Clearance in Beagle dog plasma at 1 mg/kg, iv administered as single dose; type: ADME, organism-based, Canis lupus familiaris
[28] = Apparent intrinsic hepatic clearance in rat hepatocytes; type: ADME, cell-based, Hepatocyte; conditions: read-out: CLH(app)
[29] = Volume of distribution at steady state in Nu/Nu mouse at 1 mg/kg, iv administered as single dose; type: ADME, organism-based; conditions: in vivo, read-out: Vdss
[30] = target: Cytoplasmic tyrosine-protein kinase BMX (Homo sapiens) (UniProt P51813); experiment: Inhibition of His-tagged full-length recombinant human BMX cytoplasmic domain expressed in Baculovirus expression system at 1 uM by FRET-based Z'-LYTE assay
Sequence of Cytoplasmic tyrosine-protein kinase BMX (Homo sapiens) (P51813 whole entry, the tested form may be a part): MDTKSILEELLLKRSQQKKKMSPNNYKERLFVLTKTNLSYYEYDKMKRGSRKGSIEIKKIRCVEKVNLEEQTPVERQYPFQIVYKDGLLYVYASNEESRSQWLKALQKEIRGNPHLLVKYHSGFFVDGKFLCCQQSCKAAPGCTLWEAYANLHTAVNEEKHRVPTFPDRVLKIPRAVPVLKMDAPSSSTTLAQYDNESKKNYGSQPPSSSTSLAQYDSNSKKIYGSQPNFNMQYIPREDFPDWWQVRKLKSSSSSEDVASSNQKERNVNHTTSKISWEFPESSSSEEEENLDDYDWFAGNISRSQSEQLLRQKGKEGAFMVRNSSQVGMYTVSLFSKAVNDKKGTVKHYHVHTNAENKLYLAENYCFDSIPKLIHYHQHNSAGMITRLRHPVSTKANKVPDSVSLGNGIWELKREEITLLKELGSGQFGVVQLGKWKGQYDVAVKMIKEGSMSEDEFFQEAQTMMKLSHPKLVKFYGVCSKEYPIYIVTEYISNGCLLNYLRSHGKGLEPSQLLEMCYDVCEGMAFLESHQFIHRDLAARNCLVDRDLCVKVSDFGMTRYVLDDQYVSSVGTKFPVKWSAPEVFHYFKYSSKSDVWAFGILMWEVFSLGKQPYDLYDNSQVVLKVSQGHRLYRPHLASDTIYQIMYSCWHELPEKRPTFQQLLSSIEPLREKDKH

[31] = target: Tyrosine-protein kinase Fer (Homo sapiens) (UniProt P16591); experiment: Inhibition of GST-tagged recombinant human FER catalytic domain (541 to 822 residues) expressed in Baculovirus expression system at 1 uM by FRET-based Z'-LYTE assay
Sequence of Tyrosine-protein kinase Fer (Homo sapiens) (P16591 whole entry, looked up, the tested form may be a part): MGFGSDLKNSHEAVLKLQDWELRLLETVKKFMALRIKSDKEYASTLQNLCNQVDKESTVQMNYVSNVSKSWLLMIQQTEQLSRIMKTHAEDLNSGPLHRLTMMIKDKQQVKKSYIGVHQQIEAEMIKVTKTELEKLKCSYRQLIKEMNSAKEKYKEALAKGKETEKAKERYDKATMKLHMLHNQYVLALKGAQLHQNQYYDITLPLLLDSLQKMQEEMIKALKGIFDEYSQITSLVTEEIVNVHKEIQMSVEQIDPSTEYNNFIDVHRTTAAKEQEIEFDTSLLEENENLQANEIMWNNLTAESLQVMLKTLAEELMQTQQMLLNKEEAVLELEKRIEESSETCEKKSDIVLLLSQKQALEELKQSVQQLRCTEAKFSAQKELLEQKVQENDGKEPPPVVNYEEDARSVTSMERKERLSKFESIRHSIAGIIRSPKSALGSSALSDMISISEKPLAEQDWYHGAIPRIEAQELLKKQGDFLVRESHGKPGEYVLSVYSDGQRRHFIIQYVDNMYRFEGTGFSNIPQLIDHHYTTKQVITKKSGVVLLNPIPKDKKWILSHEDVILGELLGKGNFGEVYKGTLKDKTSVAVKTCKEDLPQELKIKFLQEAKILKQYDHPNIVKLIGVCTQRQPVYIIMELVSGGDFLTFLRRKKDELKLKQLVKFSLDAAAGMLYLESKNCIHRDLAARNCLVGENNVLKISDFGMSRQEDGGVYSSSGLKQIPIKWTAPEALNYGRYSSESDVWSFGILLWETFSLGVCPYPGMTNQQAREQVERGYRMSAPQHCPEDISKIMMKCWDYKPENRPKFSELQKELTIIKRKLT

Canis familiaris [32] = experiment: Toxicity in dog assessed as effect on central nervous system functions administered as single dose; type: organism-based, Canis lupus familiaris; conditions: in vivo
[33] = Apparent intrinsic clearance in dog microsomes; type: ADME, Canis lupus familiaris, Microsome; conditions: read-out: CL(app)
[34] = Volume of distribution at steady state in Beagle dog at 1 mg/kg, iv administered as single dose; type: ADME, organism-based, Canis lupus familiaris; conditions: in vivo, read-out: Vdss
Rattus norvegicus [35] = experiment: Toxicity in rat assessed as effect on blood pressure administered as repeated dosing; type: organism-based; conditions: in vivo

half-life at 1 µM [1]: 3.95 h
half-life [2]: 1.3 h
half-life at 1 µM [3]: 5.8 h
CLint scaled [4]: < 6 mL/min/kg
CLH (Hepatocyte): 3 µL/min/mg
fraction unbound at 2 µM [5]: 0.2 to 0.49
inhibition at 10 µM (CYP2D6): < 30%
CLint scaled [9]: 3 mL/min/kg
inhibition at 10 µM (CYP2C8): < 30%
fraction unbound at 2 µM [11]: 0.27
inhibition [13]: Active
CLint scaled [14]: 17 mL/min/kg
fraction unbound at 2 µM [16]: 0.75
inhibition [17]: > 50%
bioavailability [18]: 11%
bioavailability [19]: 60%
Papp (in vitro [21]): 9 ×10⁻⁶ cm/s
TDI [22]: Not Active
microsomal CLint at […], 1 µM (in vitro [24]): 8 µL/min/mg
inhibition [25]: > 50%
clearance [27]: 12 mL/min/kg
CLint scaled [28]: 183 mL/min/kg
Vd [29]: 1.48 L/kg
inhibition [30]: > 50%
inhibition [31]: Active
CLint scaled [33]: 3 mL/min/kg
Vd [34]: 0.94 L/kg
Structure (SMILES): C=CC(=O)N[C@@H]1CN(c2nc(Nc3cn(C)nc3OC)c3ncn(C)c3n2)C[C@H]1F [MAVELERTINIB]
Activity (Rattus norvegicus [6]): Non-Toxic
Activity (Rattus norvegicus [7]): Non-Toxic
Activity (Rattus norvegicus [8]): Non-Toxic
Activity (Canis familiaris [10]): Non-Toxic
Activity (Rattus norvegicus [12]): Non-Toxic
Activity (Rattus norvegicus [15]): Non-Toxic
IC50 [20]: > 100 µM
Activity (Canis familiaris [23]): Non-Toxic
Activity (Rattus norvegicus [26]): Non-Toxic
Activity (Canis familiaris [32]): Non-Toxic
Activity (Rattus norvegicus [35]): Non-Toxic
